Key:
[1] = target: T1, "5-HT1 -like" receptor (dog isolated saphenous vein strip) (Canis lupus familiaris, UniProt P79250); experiment: contraction of dog isolated saphenous vein strip (5-HT1-like receptor agonist activity); format: cell-based; conditions: in vitro; for RELATIVE POTENCY EC50 (compound)/EC50 (5-HT): ratio to 5-HT; for EC50: read-out: EC50 (concentration of compound which causes 50% of the maximum contraction effected by it)
T1 construct: contracting the isolated dog saphenous vein strip; from tissue; host or cells: dog isolated saphenous vein strip
Protocol: The in vitro evaluation of the "5-HT1 -like" receptor agonist activity of the compounds of the invention is carried out by testing the extent to which they mimic sumatriptan in contracting the isolated dog saphenous vein strip (P. P. A. Humphrey et al., Brit. J. Pharmacol., 1988, 94, 1123).
The following Table illustrates the in vitro activities for a range of the Compounds of the invention on dog isolated saphenous vein strip. EC50 represents the concentration of compound which causes 50% of the maximum contraction effected by it.

[2] = tested on: conscious dogs; experiment: acute toxicity in conscious dogs; format: in vivo, dog; conditions: doses of up to 1 mg/Kg i.v.
[3] = target: T1, "5-HT1 -like" receptor (dog isolated saphenous vein strip); conditions: effect of sumatriptan-like contraction blocked by a known 5-HT antagonist; cited from earlier work
[4] = tested on: carotid vascular resistance / carotid arterial blood flow; conditions: anaesthetized dog; cited from earlier work

T1 sequence (P79250 whole entry): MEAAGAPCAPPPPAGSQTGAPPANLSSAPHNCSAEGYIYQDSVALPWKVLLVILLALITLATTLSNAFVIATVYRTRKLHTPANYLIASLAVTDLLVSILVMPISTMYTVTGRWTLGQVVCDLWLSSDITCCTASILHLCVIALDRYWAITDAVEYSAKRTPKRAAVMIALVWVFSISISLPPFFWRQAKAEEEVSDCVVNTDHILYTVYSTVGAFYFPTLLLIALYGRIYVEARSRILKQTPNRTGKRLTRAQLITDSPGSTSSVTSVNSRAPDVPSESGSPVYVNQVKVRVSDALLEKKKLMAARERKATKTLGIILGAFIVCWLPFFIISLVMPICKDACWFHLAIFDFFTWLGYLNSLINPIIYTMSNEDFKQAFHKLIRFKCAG

Row | RELATIVE POTENCY EC50 (compound)/EC50 (5-HT) [1] | EC50 [1] [nM] | Compound | signs of adverse acute toxicity [2] | blockade of contraction of dog saphenous vein strip [3] | carotid arterial blood flow [4]
1 | 3.4 | 440 | CC(=O)CCN1CCC[C@@H]1Cc1c[nH]c2ccc(CCS(=O)(=O)c3ccccc3)cc12 [Example 38, 3-[N-(3-Oxo-1-butyl)-2-(R)-pyrroldinylmethyl]-5-(2phenylsulphonylethyl)-1H-indole] |  |  | 
2 | 3.8 | 160 | CCS(=O)(=O)CCc1ccc2[nH]cc(C[C@H]3CCCN3CCO)c2c1 [Example 26, 5-(2-Ethylsulphonylethyl)-3-[N-(2-hydroxyethyl)-2(R)pyrrolidinylmethyl]-1H-indole] |  |  | 
3 | 1.4 | 62 | CCS(=O)(=O)CCc1ccc2[nH]cc(C[C@H]3CCCN3CCC(N)=O)c2c1 [Example 34] |  |  | 
4 | 4.6 | 290 | CCS(=O)(=O)CCc1ccc2[nH]cc(C[C@H]3CCCN3CC[S+]([O-])c3ccccc3)c2c1 (single isomer, unassigned) [Example 37A] |  |  | 
5 | 11.0 | 290 | CCS(=O)(=O)CCc1ccc2[nH]cc(C[C@H]3CCCN3CCc3ccccn3)c2c1 [Example 36] |  |  | 
6 |  |  | CSc1ccc2c(c1)C(N1CCN(C)CC1)Cc1ccccc1S2 (stereo not drawn) [methiothepin] |  | can be blocked | 
7 | 9.4 | 430 | CCS(=O)(=O)CCc1ccc2[nH]cc(C[C@H]3CCCN3Cc3ccccn3)c2c1 [Example 1, 5-(2-Ethylsulphonylethyl)-3-[N-[2-pyridylmethyl)-2(R)-pyrrolidinylmethyl]-1H-indole] |  |  | 
8 |  |  | CNS(=O)(=O)Cc1ccc2[nH]cc(CCN(C)C)c2c1 [Sumatriptan] |  |  | consequent decrease
9 | 1.9 | 31 | CCS(=O)(=O)CCc1ccc2[nH]cc(C[C@H]3CCCN3CCC(C)=O)c2c1 [Example 31, 5-(2-Ethylsulphonylethyl)-3-[N-{3-oxo-1-butyl)-2(R)-pyrrolidinylmethyl]-1H-indole] |  |  | 
10 | 2.3 | 120 | CCS(=O)(=O)CCc1ccc2[nH]cc(C[C@H]3CCCN3CCOC)c2c1 [Example 4, 5-(2-Ethylsulphonylethyl)-3-[N-(2-methoxyethyl)-2-(R)-pyrrolidinylmethyl]-1H-indole] |  |  | 
11 | 4.9 | 560 | O=S(=O)(CCc1ccc2[nH]cc(C[C@H]3CCCN3C3CCCC3)c2c1)c1ccccc1 [Example 21, 3-(N-Cyclopentyl-2(R)-pyrrolidinylmethyl)-5-(2-phenylsulphonylethyl)-1H-indole] |  |  | 
12 | 1.8 | 82 | CCS(=O)(=O)CCc1ccc2[nH]cc(C[C@H]3CCCN3C3CCCC3)c2c1 [Example 9, 3-(N-Cyclopentyl-2(R)-pyrrolidinylmethyl)-5-(2-ethylsulphonylethyl)-1H-indole] |  |  | 

Row | Compound | RELATIVE POTENCY EC50 (compound)/EC50 (5-HT) [1] | EC50 [1] [nM] | signs of adverse acute toxicity [2] | blockade of contraction of dog saphenous vein strip [3] | carotid arterial blood flow [4]
13 | NS(=O)(=O)C=Cc1ccc2[nH]cc(C[C@H]3CCCN3CC3CC3)c2c1 [Example 44, 3-(N-Cyclopropylmethyl-2(R)-pyrrolidinomethyl)-5-(2-sulphamoylethenyl)-1H-indole] | 2.7 | 180 |  |  | 
14 | CCS(=O)(=O)CCc1ccc2[nH]cc(C[C@H]3CCCN3C(C)c3ccccc3)c2c1 (mixture of isomers) [Example 13, 5-(2-Ethylsulphonylethyl)-3-{N-(1(R,S)-phenylethyl]-2(R)-pyrrolidinylmethyl}-1H-indole] | 1.4 | 71 | no signs of adverse acute toxicity |  | 
15 | CCS(=O)(=O)CCc1ccc2[nH]cc(C[C@H]3CCCN3CC=C(C)C)c2c1 [Example 8, 5-(2-Ethylsulphonylethyl)-3-[N-(3-methyl-2-butenyl)-2(R)-pyrrolidinylmethyl]-1H-indole] | 2.5 | 190 | no signs of adverse acute toxicity |  | 

— patent US5639779A, “Indole derivatives as 5-HT1-like agonists” (Pfizer Inc., priority 1992, dated 1997)
